Results as given in patent publication US4483989A, “Synthesis of pyrido[4,3-b]carbazole derivatives” (priority 1973, dated 1984).
pKd: −log10 of the molar value. Entries after “also recorded” stand apart in the source; their conditions may differ. Read-outs that look alike come from different tables or passages of the source.

How the values were obtained:
mouse L 1210 leukemia [1] = test: L1210 leukemia in mice: inoculum of 10^5 cells, single dose of compound 24 hours later; assay type: in vivo
Text: The experimental tumor mouse L 1210 leukemia is commonly used to evaluate the effects of all the antitumor compounds now used in human therapeutics,as was described, for example, by C. C. ZUBROD in Proc. Nat. Acad. Sci. USA 69, 1972, pp. 1042-1047. This experimentally formed tumoral system permits very accurate quantitative evaluation of the activity of the compound tested and also, consequently, an objective comparison of the respective activities of various compounds, for example, according to the methods described by H. E. SKIPPER, F. M. SCHABEL Jr. and W. S. WILCOX in Cancer Chemiother. Rep. 1964, pp. 1-111 and 45, 1965, pp. 5-28.
(§1) The mice were randomized in each experimental series. A first routine experiment enable the death rate by toxicity to be determined and thus established the sublethal doses.
According to the convention in force in this field, the animals which survived longer than 45 days after inoculation of tumoral cells were considered to be cured.
(§2) To evaluate the therapeutic activity of the compounds of the invention, doses of said compound were expressed basing them on the 30 days sublethal dose which was fixed at 1.
A--A tumoral inoculum of 10^5 L1210 leukemia cells was administered by the intraperitoneal way to twenty 2 to 3 months old DBA/2 strain female mice. 24 hours later, half of said mice received a single intraperitoneal injection of a variable dose of the compound to be tested and the same volume of solvent was administered to the other half of the mice by the same way; this latter half of the group of mice was therefore used as the control series. The mice were randomized in each experimental series.
Animals surviving for longer than 45 days were considered to be cured.

mouse P 388 leukemia = test: P 388 leukemia in mice, same procedure, inoculum of 10^5 cells; assay type: in vivo; details: same doses, compared with L1210 leukemia
Text: The effect the compounds of the invention have on mouse L 1210 or P 388 leukemias was used to test the antitumor activity of said compounds.
B-The same procedure was used as in A, but after a tumoral inoculum of 10^5 P 388 leukemia cells had been injected to the mice. The therapeutic activity of the 9-hydroxy 2-methyl-ellipticinium was similar on this mouse P 388 leukemia to that obtained on mouse L1210 leukemia, using the same doses.

[2] = Text: as §1, §2
DNA = DNA affinity; assay type: binding
L1210 cells = test: Rate of L1210 cells multiplication in vitro; assay type: cell-based, mouse
[3] = Autoradiography with 14C-labeled molecules (biodisponibility); assay type: in vivo
Text: To understand the increase of the antitumor efficiency of the quaternarized compounds, several parameters of action of 9--OH--E and its methyl derivative have been comparatively established (see table III). Both compounds have about the same affinity for DNA. On a weight basis, the methyl compound is about 10 times more toxic in mice but also 10 times more efficient on leukemic mice (ILS). […] Therefore, there is no quantitative parallel between the in vivo and in vitro action of these drugs. The N-quaternization markedly changes the biodisponibility of the drugs as shown by autoradiography with ^14 C-labeled molecules. […] Several ellipticine derivatives are mutagenic on Ames Salmonella test; however, the quaternized derivatives lose this property. The microsomes, which are able to metabolize some ellipticines, increase the mutagenic ability of these drugs in vitro. […] Due to the curved shape of their molecules, their relative hydrophobicity, and the presence of a heterocyclic nitrogen, the ellipticines are good substrates for the cytochrome P450 system, provided that the 2-N remains uncharged.

[4] = tested on: advanced breast, thyroid, or colon cancers; test: Phase I trial, weekly intravenous dose, refractory patients; assay type: in vivo, human
Protocol: A phase I trial was done at the Cancer Institute of 14-Caen, France. A weekly dose in the range of 50 to 100 mg per m2 was given intravenously over a 30 minutes period to patients refractory to usual chemotherapeutic or radiotherapeutic treatments (3). […] They were suffering from advanced breast, thyroid, or colon cancers, with bone or lung metastasis in mostcases.

[5] = mouse, in vivo
mouse L 1210 leukemia [6] = details: in vivo; cited from earlier work
BP 8 tumors = details: mouse, in vivo; cited from earlier work
[7] = tested on: acute myeloblastic leukemia; details: in vivo; cited from earlier work
[8] = tested on: acute lymphoblastic leukemia; details: in vivo; cited from earlier work
Hodgkin's disease = details: in vivo; cited from earlier work
[9] = cited from earlier work

## Cc1c2cc[n+](C)cc2c(C)c2c1[nH]c1ccc(O)cc12 [9-hydroxy 2-methyl ellipticinium acetate, 9-hydroxy-2-methyl-ellipticinium acetate]
Mouse L 1210 leukemia [1]; L1210 leukemia
  Doses smaller than the doses of 9-hydroxy-ellipticine necessary to obtain a comparable result: about 10 times
Mouse L 1210 leukemia [1]; Mus musculus, L1210, ip, mice, read-out: L 1210 cells: in vivo dose to reach ILS 25%
  ED (ILS 25%): 1 mg/kg
Mouse L 1210 leukemia [1]; footnote of table IV, I.P., 10^5 L1210 cells
  Cured mouse surviving more than 45 days: 1 out of 20 mice
Mouse L 1210 leukemia [1]; mouse, in vivo
  Efficiency on leukemic mice (ILS) relative to 9--OH--E, on a weight basis: about 10 times
Mouse P 388 leukemia
  Therapeutic activity on mouse P 388 leukemia: similar
[2]
  Toxicity in mice relative to 9--OH--E, on a weight basis: about 10 times
[2]; route not given
  LDo (highest non lethal dose / sublethal dose) for mice: 5 mg/kg
DNA
  pKd: 6.11
L1210 cells
  Activity on the rate of growth of L1210 cells in vitro relative to 9--OH--E: four times less active
[3]
  Elimination: elimination through feces is reduced
[3]; listed as methyl derivative
  Organ distribution (autoradiography): devoid of any ability to concentrate in lungs and pancreas; also recorded: capacity to concentrate in the intestinal walls and in the thyroid
[4]; human, in vivo
  Activity on human tumors: active on some human tumors
[4]; phase I trial
  Toxic side effects: No major toxic side effects
[4]; weekly 50 to 100 mg per m2 intravenously over 30 minutes
  Patients with subjective or objective improvements: Eight of the first 18 patients
[5]
  Metabolism: excreted with no major modification

## COc1ccc2[nH]c3c(C)c4ccncc4c(C)c3c2c1 [9-methoxy-ellipticine lactate]
Mouse L 1210 leukemia [6]
  Oncostatic action in mouse L 1210 leukemia: oncostatic action
BP 8 tumors
  Oncostatic action in BP 8 tumors: oncostatic action
[7]
  Effectiveness in acute myeloblastic leukemia: effective
[8]
  Effectiveness in acute lymphoblastic leukemia: ineffective
Hodgkin's disease
  Effectiveness in Hodgkin's disease: ineffective
[9]; administered after the antigen
  Immunosuppressive action: has an immunosuppressive action
[9]; administered to humans
  Immunosuppressive action: does not reveal such an activity
